Reference: patent US20250305981A1, “SWITCHING PEPTIDE AND IMMUNOASSAY USING SAME” (OPTOLANE TECHNOLOGIES INC., priority 2021, published 2025)

Columns and labels:
[1] = test system: Fab region of rabbit anti-HRP antibodies; test: Papain treatment of immobilized antibody bound to fluorescently labeled switching peptide (FIG. 6B); format: binding; conditions: after vs before papain
Excerpt: In the case of this experiment, after immobilization of the antibodies (rabbit anti-HRP antibodies) on the microplate, binding between the antibody and the switching peptide was induced by treatment with a fluorescently labeled switching peptide, the unbound switching peptide was removed, and then the Fab region was hydrolyzed from the immobilized antibodies by adding papain, which is a protease. Referring to FIG. 6A, the fluorescence at the bottom (B) of the microplate is expected to decrease after the papain reaction because the fluorescently labeled switching peptides are bound to the Fab region of antibodies, and the fluorescence in the solution is expected to increase because the Fab region to which the switching peptide is bound is hydrolyzed and dissolved into the solution. This prediction is proven to be true from the graphs of FIG. 6B.

Anti-HRP antibody(r) = test: Fluorescence before/after antigen binding, peptide bound to immobilized antibody (Table 2); set-up: species or system rabbit; conditions: fluorescently labeled peptide
Anti-HBsAg antibody(g) = test: as above; set-up: species or system goat; conditions: for fluorescence intensity at the bottom of the plate decreased by: after treatment with antigen HBsAg; for Bottom (B) of microplate After antigen binding, fluorescence intensity / Bottom (B) of microplate Before antigen binding, fluorescence intensity / Bottom (B) of microplate Change (%) / In solution (S) After antigen binding, fluorescence intensity / In solution (S) Before antigen binding, fluorescence intensity: antigen HBsAg, fluorescently labeled peptide
Anti-hCG antibody(m) = test: as above; set-up: species or system mouse; conditions: fluorescently labeled peptide
Anti-CRP antibody(r) = test: as above; set-up: species or system rabbit; conditions: fluorescently labeled peptide
[2] = target: anti-HRP antibody from a rabbit; test: One-step immunoassay with fluorescently labeled peptides, varying HRP antigen concentration (FIG. 7); format: binding; conditions: estimated; HRP antigen 0.3 to 100 μM, fluorescence in solution; read-out: Equilibrium dissociation constant
Excerpt: FIG. 7A is a schematic diagram for explaining an immunoassay method using fluorescently labeled peptide compounds of Example 1, and FIGS. 7B and 7C are graphs illustrating the fluorescence intensities in a solution and at a bottom of the microplate depending on a concentration of the antigen measured by the immunoassay method illustrated in FIG. 7A. In this experiment, an anti-HRP antibody from a rabbit immobilized on a microplate was used as the binding antibody and HRP was used as the antigen.
Referring to FIGS. 7A to 7C, as a result of performing immunoassay while varying the concentration of antigen HRP from 0.3 to 100 μM, for the four types of switching peptides (H1, H2, L1, L2), an increase in the fluorescence intensity in the solution was observed depending on the concentration of the antigen (HRP).
Equilibrium dissociation constants of the H1, H2, L1, and L2 peptides were estimated to be 1.65, 3.11, 3.29, and 1.48 μM, and the difference in the dissociation constant for each switching peptide means that each switching peptide has a different detection area for each antigen.

L2 peptide = test: FRET test of specific interaction between H1 and L2 peptides on microplate; format: binding; conditions: TAMRA-H1 and FAM-L2, concentration of H1 peptide varied
Excerpt: (§1) Here, at the ends of the L1 and L2 peptides, a first fluorescent label, FAM (λex=488 nm, λem=532 nm) was modified, and at the ends of the H1 and H2 peptides, a second fluorescent label, TAMRA (λex=532 nm, λem=570 nm) was modified.

[3] = Dynamic laser scattering (DLS) of binding antibody bound to ferrocene-labeled switching peptide (FIG. 8A); format: physicochemical; conditions: compared with antibody bound to L2 or H1 peptide
Description: FIG. 8A is a result obtained by performing dynamic laser scattering (DLS) to compare the hydrodynamic radius of the switching peptides of the present disclosure. Referring to FIG. 8A, it can be confirmed that DLS was performed using intensity measurement of scattered light under monochromatic laser light, and a hydrodynamic radius of the binding antibody bound to the L1 or H2 peptide was smaller than that of the bound antibody bound to the L2 or H1 peptide.

[4] = Diffusion coefficient (Dox) of ferrocene-labeled switching peptides in CV analysis (FIG. 8C); format: physicochemical; conditions: compared with H1 and L2 peptides
Excerpt: FIG. 8C is a graph obtained by measuring a diffusion coefficient (Dox) of the switching peptides of the present disclosure in CV analysis. […] Therefore, L1 and H2 peptides labeled with ferrocene may be optimal probes for electrochemical immunoassay.

H2 peptide = test: FRET test of specific interaction between L1 and H2 peptides on microplate; format: binding; conditions: FAM-L1 and TAMRA-H2, concentration of L1 peptide varied
Chain of H2 peptide (as listed by the source): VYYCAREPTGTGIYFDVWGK
Excerpt: as §1
Referring to FIG. 4A, the interaction between the L1 and H2 peptides was observed by changing the concentration of the L1 peptide, and the FRET intensity increased with increasing the concentration of the L1 peptide.

Substance	decrease of fluorescence intensity at the bottom of the microplate after papain treatment [1] [%]	increase of fluorescence intensity in the solution after papain treatment [1]	Bottom (B) of microplate After antigen binding, fluorescence intensity (Anti-HRP antibody(r))	Bottom (B) of microplate Before antigen binding, fluorescence intensity (Anti-HRP antibody(r))	Bottom (B) of microplate Change (%) (Anti-HRP antibody(r))	In solution (S) After antigen binding, fluorescence intensity (Anti-HRP antibody(r))	In solution (S) Before antigen binding, fluorescence intensity (Anti-HRP antibody(r))	fluorescence intensity at the bottom of the plate decreased by (Anti-HBsAg antibody(g)) [%]	Bottom (B) of microplate After antigen binding, fluorescence intensity (Anti-HBsAg antibody(g))	Bottom (B) of microplate Before antigen binding, fluorescence intensity (Anti-HBsAg antibody(g))	Bottom (B) of microplate Change (%) (Anti-HBsAg antibody(g))	In solution (S) After antigen binding, fluorescence intensity (Anti-HBsAg antibody(g))	In solution (S) Before antigen binding, fluorescence intensity (Anti-HBsAg antibody(g))	Bottom (B) of microplate After antigen binding, fluorescence intensity (Anti-hCG antibody(m))	Bottom (B) of microplate Before antigen binding, fluorescence intensity (Anti-hCG antibody(m))	Bottom (B) of microplate Change (%) (Anti-hCG antibody(m))	In solution (S) After antigen binding, fluorescence intensity (Anti-hCG antibody(m))	In solution (S) Before antigen binding, fluorescence intensity (Anti-hCG antibody(m))	In solution (S) Change (%) (Anti-hCG antibody(m))	Bottom (B) of microplate After antigen binding, fluorescence intensity (Anti-CRP antibody(r))	further results
VYYCF QGSHV PFTK [L2, homology to FR3 or FR4 region of the light chain]	72.5	2,452%	3208	12584	−74.5	16135	2315	35.2	9856	28002	−64.8	15359	2279	3072	33156	−90.7	9402	1692	+456%	11236	Bottom (B) of microplate Before antigen binding, fluorescence intensity (Anti-CRP antibody(r)): 20394; Bottom (B) of microplate Change (%) (Anti-CRP antibody(r)): −44.9%; In solution (S) After antigen binding, fluorescence intensity (Anti-CRP antibody(r)): 32187; In solution (S) Before antigen binding, fluorescence intensity (Anti-CRP antibody(r)): 3274; In solution (S) Change (%) (Anti-CRP antibody(r)): +883%; Kd [2]: 1480 nM
SYWIH WVKQR PGQGL EWIGE [H1, homology to FR2 region of the heavy chain]	84.3	2,184%	1451	11840	−87.7	21965	2596	41.1	4618	11225	−58.9	11453	2242	1940	5646	−65.6	3921	1281	+206%	3595	specific interaction (FRET intensity) (L2 peptide): specific interaction; Bottom (B) of microplate Before antigen binding, fluorescence intensity (Anti-CRP antibody(r)): 4912; Bottom (B) of microplate Change (%) (Anti-CRP antibody(r)): −26.8%; In solution (S) After antigen binding, fluorescence intensity (Anti-CRP antibody(r)): 5659; In solution (S) Before antigen binding, fluorescence intensity (Anti-CRP antibody(r)): 2242; In solution (S) Change (%) (Anti-CRP antibody(r)): +152%; Kd [2]: 1650 nM
VYYCA REPTG TGIYF DVWGK [H2, homology to FR3 or FR4 region of the heavy chain]	58.7	2,356%	1806	122230	−85.2	18128	2272	63.9	18773	29367	−36.1	9136	1784	23320	23320	−88.5	8545	1654	+416%	22205	Bottom (B) of microplate Before antigen binding, fluorescence intensity (Anti-CRP antibody(r)): 22205; Bottom (B) of microplate Change (%) (Anti-CRP antibody(r)): −39.5%; In solution (S) After antigen binding, fluorescence intensity (Anti-CRP antibody(r)): 16311; In solution (S) Before antigen binding, fluorescence intensity (Anti-CRP antibody(r)): 2099; In solution (S) Change (%) (Anti-CRP antibody(r)): +677%; Kd [2]: 3110 nM; hydrodynamic radius of the binding antibody bound to the peptide [3]: smaller; diffusion coefficient (Dox) [4]: relatively higher
TYLEW YPQKP GQSPK LLIYK [L1, homology to FR2 region of the light chain]	84.8	1,032%	1990	15608	−87.3	12280	2687	48.7	5388	11062	−51.3	20501	2779	1777	4630	−61.6	3580	1248	+187%	3456	specific interaction (FRET intensity) (H2 peptide): specific interaction; Bottom (B) of microplate Before antigen binding, fluorescence intensity (Anti-CRP antibody(r)): 6719; Bottom (B) of microplate Change (%) (Anti-CRP antibody(r)): −48.6%; In solution (S) After antigen binding, fluorescence intensity (Anti-CRP antibody(r)): 6505; In solution (S) Before antigen binding, fluorescence intensity (Anti-CRP antibody(r)): 741; In solution (S) Change (%) (Anti-CRP antibody(r)): +778%; Kd [2]: 3290 nM; hydrodynamic radius of the binding antibody bound to the peptide [3]: smaller; diffusion coefficient (Dox) [4]: relatively higher
